Structures can show the parent of a compound that is named as a salt.
Columns and labels:
OF1 female mice = assay: Model of inflammatory angiogenesis in mice (air pocket granuloma, carmine red dye); assay type: in vivo; details: for % inhibition of the angiogenic parameter (dye content) / % inhibition of the inflammatory parameter (mass of the granuloma): daily oral, mice; for dye content corresponding to the angiogenesis / weight of the granuloma (dry weight of the skin), inflammation part: one week of daily treatment
Method: The model described by Colville-Nash et al., in 1995, makes it possible to study pharmacological agents capable of modulating the occurrence of angiogenesis in an inflammatory context. The model is developed on OF1 female mice (Charles River Laboratories) weighing approximately 25 g, and by groups of 12. The animals are anaesthetized with sodium pentobarbital (60 mg/kg; Sanofi Nutrition Sante animale)) intraperitoneally. An air pocket is created on the back of the mouse by subcutaneous injection of 3 ml of air. After they have awoken, the animals receive a treatment generally by gavage, and receive an injection of 0.5 ml of Freund's adjuvant (Sigma) with 0.1% of croton oil (Sigma) in the pocket. Seven days later, the mice are again anaesthetized and placed on a hot plate at 40° C. One ml of carmine red (Aldrich Chemicals, 5% in 10% of gelatin) is injected into the tail vein. The animals are then placed at 4° C. for 2-3 hours. The skins are then taken and dried for 24 h in an oven at 56° C. The dry tissues are weighed and placed in 1.8 ml of digestion solution (2 mM dithiothreitol, 20 mM Na2HPO4, 1 mM EDTA, 12 U/ml papain) for 24 h. The dye is then dissolved in 0.2 ml of 5M NaOH. The skins are centrifuged at 2000 rpm for 10 min at ambient temperature. The supernatants are filtered through 0.2 μm cellulose acetate membranes. The filtrates are read in a spectrophotometer at 492 nm against a carmine red calibration range. Two parameters are studyed: the dry weight of the granuloma and the amount of dye after digestion of the tissues. The results are expressed as mean values (±sem). The differences between the groups are tested with an ANOVA followed by a Dunnett's test, of which the reference group is the “solvent control” group.
The FGF-R antagonists are evaluated between 1 and 50 mg/kg using methylcellulose/tween (0.6% v/v) as vehicle or any other vehicle which allows the active ingredient to be solubilized. The molecules are administered daily, orally (one or two times a day) by gavage. The antagonists of the present invention are considered to be active as long as they enable a significant reduction in the angiogenic parameter, i.e. a reduction in the amount of carmine red dye in the skins of the animals tested.

[1] = test system: HUVEC cells stimulated with FGF-2; assay: FGF-2-induced in vitro proliferation of HUVEC cells; assay type: cell-based, human; details: HUVEC stimulated with FGF-2, ATP luminescence
Method: To do this, HUVEC human vein endothelial cells (promocell, C-12200) are seeded at a rate of 5000 cells per well of a 96-well plate (Biocoat collagen I cellware, Becton Dickinson 354650) in 100 μl of RPMI 1640 deprivation medium (Invitrogen, 31872-025) supplemented with 0.5% or 1% FCS, 2 mM glutamine, 1× sodium pyruvate (Invitrogen; 11360-039) and 1×NEAA (Invitrogen, 11140-035), overnight at 37° C. in the presence of 5% CO2. The following morning, the medium is suctioned-off and replaced with 50 μl of deprivation medium containing the antagonists at a 2× concentration, to which are added 50 μl of FGF-2 (R&D systems, 133-FB-025; Invitrogen, PHG0026) at 0.2 ng/ml (i.e. 2×). After 48 or 72 h, 100 μl of Cell Titer-GLO™ Luminescent Cell Viability Assay (Promega, G7571) are added for 10 min in order to measure, by means of a luminometer, the amount of ATP present in the cells and which is in relation to the number of cells per well corresponding to the cell proliferation.
The antagonists of the present invention are considered to be active as long as they are capable of inhibiting FGF-2-induced proliferation of HUVEC cells at a dose less than or equal to 300 nM.

[2] = test system: HUVEC cells stimulated with FGF-2; assay: FGF-2-induced in vitro angiogenesis of HUVEC cells; assay type: cell-based, human; details: HUVEC stimulated with FGF-2, 24 h, pseudotubule network length
Method: To do this, matrices composed of matrigel (growth factor reduced matrigel, Becton Dickinson 356230) and collagen (rat tail collagen type I, Becton Dickinson 354236) are deposited, at a rate of 160 μl, into each chamberslide well (Biocoat Cellware collagen, Type I, 8-well culturesides: Becton Dickinson 354630), or 60 μl per well of 96-well plates (Biocoat collagen I cellware, Becton Dickinson 354407). The matrix is prepared by mixing ⅓ of matrigel, 1 mg/ml final concentration of collagen, 0.1N NaOH (0.026× the volume of collagen in μl) and 1×PBS, and the volume is then adjusted with water. The gels are kept at 37° C. for 1 hour so as to allow them to polymerize. […] After 24 hours, the length of the network of microtubules formed was measured using a computer-assisted image analysis system (Imagenia Biocom, Courtaboeuf, France) and the total length of the pseudotubules in each well was determined. The average total length of the microcapillary network was calculated in μm for each condition corresponding to the average of 6 replicates. […]
In this experiment, the molecules are evaluated at 3 and 30 nM on induction of the angiogenesis of HUVEC human cells by FGF-2.

Question: For `CN(C)CCNC(=O)c1cccc(-c2nc(C(=O)c3ccc4c(c3)c(=O)n(Cc3ccc(F)cc3)c(=O)n4C)n3ccccc23)c1.Cl`, which melting point is on record?
Answer: 247 °C

Question: For `Cl.Cn1c(=O)n(Cc2ccc(F)cc2)c(=O)c2cc(C(=O)c3nc(-c4cccc(C(=O)OCCN5CCOCC5)c4)c4ccccn34)ccc21`, which melting point is on record?
Answer: 215 °C

Question: For `Cn1c(=O)n(Cc2ccc(F)cc2)c(=O)c2cc(C(=O)c3nc(-c4cccnc4)c4ccccn34)ccc21` (as salt: hydrochloride) [Compound No. 113, 3-(4-Fluorobenzyl)-1-methyl-6-[(1-pyridin-3-ylimidazo[1,5-a]pyridin-3-yl)carbonyl]quinazoline-2,4(1H,3H)-dione], which melting point is on record?
Answer: 267 °C

Question: With `CCCn1c(=O)[nH]c2ccc(C(=O)c3ncc4ccccn34)cc2c1=O` [Compound No. 1, 6-(Imidazo[1,5-a]pyridin-3-ylcarbonyl)-3-propylquinazoline-2,4(1H,3H)-dione] as the compound, how does the melting point read?
Answer: 304 °C

Question: For `O=C(c1ccc2nc[nH]c(=O)c2c1)c1ncc2ccccn12` [Compound No. 3, 6-(Imidazo[1,5-a]pyridin-3-ylcarbonyl)quinazolin-4(3H)-one], which melting point is on record?
Answer: 289 °C

Question: With `CCCn1c(=O)[nH]c2ccc(C(=O)c3ncc4ccc(C(=O)O)cn34)cc2c1=O` [Compound No. 8, 3-[(2,4-Dioxo-3-propyl-1,2,3,4-tetrahydroquinazolin-6-yl)carbonyl]imidazo[1,5-a]pyridine-6-carboxylic acid] as the compound, how does the melting point read?
Answer: 384 °C

Question: For `CCCn1c(=O)[nH]c2ccc(C(=O)c3nc(-c4cccc(C(=O)[O-])c4)c4ccccn34)cc2c1=O.[Na+]` [Compound No. 10, Sodium Salt of 3-{3-[(2,4-dioxo-3-propyl-1,2,3,4-tetrahydroquinazolin-6-yl)carbonyl]imidazo[1,5-a]pyridin-1-yl}benzoic acid], which “% inhibition of the angiogenic parameter (dye content)” value (shortened to “% inhibition … (dye content)”) (OF1 female mice; 30 mg/kg) is on record?
Answer: 19%

Question: What about the “% inhibition of the inflammatory parameter (mass of the granuloma)” value (shortened to “% inhibition … (mass of the granuloma)”) (OF1 female mice; 30 mg/kg) of the same compound?
Answer: 19%

Question: For `CCCn1c(=O)[nH]c2ccc(C(=O)c3nc(NS(C)(=O)=O)c4ccccn34)cc2c1=O` [Compound No. 13, N-{3-[(2,4-Dioxo-3-propyl-1,2,3,4-tetrahydroquinazolin-6-yl)carbonyl]imidazo[1,5-a]pyridin-1-yl}methanesulphonamide], which melting point is on record?
Answer: 334 °C

Question: Which melting point does the source give for `CCCn1c(=O)[nH]c2ccc(C(=O)c3nc(-c4cccc(C(N)=O)c4)c4ccccn34)cc2c1=O` [Compound No. 29, 3-{3-[(2,4-Dioxo-3-propyl-1,2,3,4-tetrahydroquinazolin-6-yl)carbonyl]imidazo[1,5-a]pyridin-1-yl}benzamide] here?
Answer: 345 to 346 °C

Question: For `CCCn1c(=O)[nH]c2ccc(C(=O)c3nc(-c4cccc(-c5nc(C)no5)c4)c4ccccn34)cc2c1=O` [Compound No. 36, 6-({1-[3-(3-Methyl-1,2,4-oxadiazol-5-yl)phenyl]imidazo[1,5-a]pyridin-3-yl}carbonyl)-3-propylquinazoline-2,4(1H,3H)-dione], which melting point is on record?
Answer: 276 to 277 °C

Question: For `Cn1c(=O)n(Cc2ccc(F)cc2)c(=O)c2cc(C(=O)c3nc(-c4cccc(C(=O)[O-])c4)c4ccccn34)ccc21.[Na+]` [Compound No. 49, Sodium Salt of 3-(3-{[3-(4-fluorobenzyl)-1-methyl-2,4-dioxo-1,2,3,4-tetrahydroquinazolin-6-yl]carbonyl}imidazo[1,5-a]pyridin-1-yl)benzoic acid], which “inhibition of proliferation as percentage of the control” value ([1]; 30 nM) is on record?
Answer: 9%

Question: What about the “inhibition of proliferation as percentage of the control” value ([1]; 300 nM) of the same compound?
Answer: 29%

Question: And the “% inhibition … (dye content)” value (OF1 female mice; 10 mg/kg, one week)?
Answer: 46%

Question: What about the “% inhibition … (mass of the granuloma)” value (OF1 female mice; 10 mg/kg, one week) of the same compound?
Answer: 40%

Question: What about the “dye content corresponding to the angiogenesis” value (OF1 female mice; 10 mg/kg) of the same compound?
Answer: significantly reduce

Question: What about the “weight of the granuloma (dry weight of the skin), inflammation part” value (OF1 female mice; 10 mg/kg) of the same compound?
Answer: significantly reduce

Question: With `CCCn1c(C)nc2ccc(C(=O)c3nc(-c4cccc(C(=O)O)c4)c4ccccn34)cc2c1=O` [Compound No. 53, 3-{3-[(2-Methyl-4-oxo-3-propyl-3,4-dihydroquinazolin-6-yl)carbonyl]imidazo[1,5-a]pyridin-1-yl}benzoic acid] as the compound, how does the melting point read?
Answer: 305 °C

Question: For `CCCn1c(C)nc2ccc(C(=O)c3nc(-c4cccc(C(N)=O)c4)c4ccccn34)cc2c1=O` [Compound No. 55, 3-{3-[(2-Methyl-4-oxo-3-propyl-3,4-dihydroquinazolin-6-yl)carbonyl]imidazo[1,5-a]pyridin-1-yl}benzamide], which melting point is on record?
Answer: 238 °C

Question: Which “inhibition of angiogenesis as a percentage of the control” value ([2]; 3 nM) does the source give for `CCCn1c(=O)n(Cc2ccc(F)cc2)c(=O)c2cc(C(=O)c3nc(-c4cccc(C(=O)[O-])c4)c4ccccn34)ccc21.[Na+]` [Compound No. 72, Sodium Salt of 3-(3-{[3-(4-fluorobenzyl)-1-propyl-2,4-dioxo-1,2,3,4-tetrahydroquinazolin-6-yl]carbonyl}imidazo[1,5-a]pyridin-1-yl)benzoic acid] here?
Answer: 36%

Question: What about the “inhibition of angiogenesis as a percentage of the control” value ([2]; 30 nM) of the same compound?
Answer: 24%

Question: And the “inhibition of proliferation as percentage of the control” value ([1]; 30 nM)?
Answer: 38%

Question: And the “inhibition of proliferation as percentage of the control” value ([1]; 300 nM)?
Answer: 55%

Question: What about the “% inhibition … (dye content)” value (OF1 female mice; 10 mg/kg, one week) of the same compound?
Answer: 43%

Question: What about the “% inhibition … (mass of the granuloma)” value (OF1 female mice; 10 mg/kg, one week) of the same compound?
Answer: 38%

Question: And the “dye content corresponding to the angiogenesis” value (OF1 female mice; 10 mg/kg)?
Answer: significantly reduce

Question: And the “weight of the granuloma (dry weight of the skin), inflammation part” value (OF1 female mice; 10 mg/kg)?
Answer: significantly reduce

Question: Which “% inhibition … (dye content)” value (OF1 female mice; 10 mg/kg, one week) does the source give for `CCCn1c(=O)n(CCOc2ccc(F)cc2)c(=O)c2cc(C(=O)c3nc(-c4cccc(C(=O)[O-])c4)c4ccccn34)ccc21.[Na+]` [Compound No. 223, Sodium Salt of 3-[3-({3-[2-(4-fluorophenoxy)ethyl]-1-propyl-2,4-dioxo-1,2,3,4-tetrahydroquinazolin-6-yl}carbonyl)imidazo[1,5-a]pyridin-1-yl]benzoic acid] here?
Answer: 43%

Question: And the “% inhibition … (mass of the granuloma)” value (OF1 female mice; 10 mg/kg, one week)?
Answer: 25%

Source: patent US9452164B2, “Imidazopyridine derivatives, process for preparation thereof and therapeutic use thereof” (SANOFI, priority 2010, dated 2016)
